# Experimental data: patent publication US20230399312A1, “SUBSTITUTED PYRIMIDINES AND METHODS OF USE” (THERAVANCE BIOPHARMA R&D IP, LLC, priority 2020, published 2023)
# What was measured:
# [1] = biological target: T1, recombinant human ALK5 (TGF-βR1) protein (Homo sapiens, UniProt P36897); test: Biochemical ALK5 (TGF-βR1) assay to measure pKi (LANCE Ultra ULight kinase assay); conditions: apparent pKi, converted from pIC50 by Cheng-Prusoff
# T1 construct: purchased Life Technologies PR9075A
# T1 sequence (P36897 34-503): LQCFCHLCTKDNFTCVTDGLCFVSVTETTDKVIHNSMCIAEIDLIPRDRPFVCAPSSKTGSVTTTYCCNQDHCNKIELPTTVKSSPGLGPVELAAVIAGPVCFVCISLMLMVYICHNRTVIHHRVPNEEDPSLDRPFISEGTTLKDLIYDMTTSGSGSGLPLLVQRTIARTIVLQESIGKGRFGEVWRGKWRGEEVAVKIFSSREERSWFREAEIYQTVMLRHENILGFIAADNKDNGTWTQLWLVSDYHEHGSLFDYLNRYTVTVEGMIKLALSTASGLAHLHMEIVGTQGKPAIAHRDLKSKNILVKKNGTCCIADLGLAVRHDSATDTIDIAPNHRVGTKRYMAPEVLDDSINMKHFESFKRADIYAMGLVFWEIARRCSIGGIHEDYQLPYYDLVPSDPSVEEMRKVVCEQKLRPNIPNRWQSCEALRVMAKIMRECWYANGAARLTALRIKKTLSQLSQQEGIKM
# How it was run: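 Dose-response series of each compound were preincubated with the kinase for 60 minutes at room temperature. Phosphorylation proceeded for 60 minutes at 37 °C after ATP addition, was quenched with EDTA, and was detected with a europium anti-phospho-Thr1342 antibody by TR-FRET; pKi was calculated from pIC50.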
# [2] = tested on: TGF-β-stimulated SMAD3 phosphorylation in BEAS-2B cells; test: Cellular ALK5 potency assay, inhibition of TGF-β stimulated pSMAD3 formation in BEAS-2B cells; assay type: cell-based; conditions: Homo sapiens, pSMAD3, TGF-β 10 ng/mL, read-out: BEAS2B pIC50 (converted)
# How it was run: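 BEAS-2B cells, HBSS/25 mM HEPES/1% BSA buffer; cpd 1 h, 37 °C; TGF-β 10 ng/mL final, 30 min; lysis, AlphaLISA pSMAD3 read next day. pIC50 vs stimulated no-compound baseline.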
Structure (SMILES),Ki [1],IC50 [2]
"Cc1cccc(-c2nccc(Nc3ccnc(Nc4ccc(C(=O)OC[C@@H]5CCCN5)nc4)n3)n2)n1 [Compound 612, [(2S)-pyrrolidin-2-yl]methyl 5-[[4-[[2-(6-methyl-2-pyridyl)pyrimidin-4-yl]amino]pyrimidin-2-yl]amino]pyridine-2-carboxylate]",0.0398 to 0.316 nM,25.1 to 158 nM
"Cc1cccc(-c2nccc(Nc3ccnc(Nc4ccc(C(=O)OCCN5CCN6CCCC6C5)nc4)n3)n2)n1 (centres unmarked) [Compound 613, 2-(3,4,6,7,8,8a-hexahydro-1H-pyrrolo[1,2-a]pyrazin-2-yl)ethyl 5-[[4-[[2-(6-methyl-2-pyridyl)pyrimidin-4-yl]amino]pyrimidin-2-yl]amino]pyridine-2-carboxylate]",0.398 to 3.16 nM,25.1 to 158 nM
"Cc1cccc(-c2nccc(Nc3ccnc(Nc4cncc(CN5CC(C(=O)OCC6CNC6)C5)c4)n3)n2)n1 [Compound 614, azetidin-3-ylmethyl 1-[[5-[[4-[[2-(6-methyl-2-pyridyl)pyrimidin-4-yl]amino]pyrimidin-2-yl]amino]-3-pyridyl]methyl]azetidine-3-carboxylate]",0.0398 to 0.316 nM,25.1 to 158 nM
"Cc1cccc(-c2nccc(Nc3ccnc(Nc4nc(C(=O)OCC5CCNCC5)cs4)n3)n2)n1 [Compound 615, 4-piperidylmethyl 2-[[4-[[2-(6-methyl-2-pyridyl)pyrimidin-4-yl]amino]pyrimidin-2-yl]amino]thiazole-4-carboxylate]",0.398 to 3.16 nM,200 to 1260 nM
"Cc1cccc(-c2nccc(Nc3ccnc(Nc4ccnc(C(=O)OCC5CNC5)c4)n3)n2)n1 [Compound 616, azetidin-3-ylmethyl 4-[[4-[[2-(6-methyl-2-pyridyl)pyrimidin-4-yl]amino]pyrimidin-2-yl]amino]pyridine-2-carboxylate]",0.398 to 3.16 nM,25.1 to 158 nM
"Cc1cccc(-c2nccc(Nc3ccnc(Nc4ccc(C(=O)O[C@H]5CCCNC5)nc4)n3)n2)n1 [Compound 617, [(3S)-3-piperidyl] 5-[[4-[[2-(6-methyl-2-pyridyl)pyrimidin-4-yl]amino]pyrimidin-2-yl]amino]pyridine-2-carboxylate]",0.0398 to 0.316 nM,25.1 to 158 nM
"Cc1cccc(-c2nccc(Nc3ccnc(Nc4cncc(C(=O)OC[C@H]5CCCN5)c4)n3)n2)n1 [Compound 618, [(2R)-pyrrolidin-2-yl]methyl 5-[[4-[[2-(6-methyl-2-pyridyl)pyrimidin-4-yl]amino]pyrimidin-2-yl]amino]pyridine-3-carboxylate]",0.398 to 3.16 nM,25.1 to 158 nM
"Cc1cccc(-c2nccc(Nc3ccnc(Nc4csc(C(=O)OCCN5CCC[C@H](N)C5)c4)n3)n2)n1 [Compound 619, 2-[(3S)-3-amino-1-piperidyl]ethyl 4-[[4-[[2-(6-methyl-2-pyridyl)pyrimidin-4-yl]amino]pyrimidin-2-yl]amino]thiophene-2-carboxylate]",0.0398 to 0.316 nM,25.1 to 158 nM
"Cc1cccc(-c2nccc(Nc3ccnc(Nc4ccc(C(=O)OC[C@H]5CCCNC5)nc4)n3)n2)n1 [Compound 620, [(3S)-3-piperidyl]methyl 5-[[4-[[2-(6-methyl-2-pyridyl)pyrimidin-4-yl]amino]pyrimidin-2-yl]amino]pyridine-2-carboxylate]",0.0398 to 0.316 nM,25.1 to 158 nM
"Cc1cccc(-c2nccc(Nc3ccnc(Nc4csc(C(=O)OC[C@@H]5CCC[C@H](N)C5)c4)n3)n2)n1 [Compound 621, [(1R,3S)-3-aminocyclohexyl]methyl 4-[[4-[[2-(6-methyl-2-pyridyl)pyrimidin-4-yl]amino]pyrimidin-2-yl]amino]thiophene-2-carboxylate]",0.0398 to 0.316 nM,25.1 to 158 nM
"Cc1cccc(-c2nccc(Nc3ccnc(Nc4ccc(C(=O)OC5CNC5)cn4)n3)n2)n1 [Compound 622, azetidin-3-yl 6-[[4-[[2-(6-methyl-2-pyridyl)pyrimidin-4-yl]amino]pyrimidin-2-yl]amino]pyridine-3-carboxylate]",3.98 to 31.6 nM,25.1 to 158 nM
"Cc1cccc(-c2nccc(Nc3ccnc(Nc4ncc(C5=CCNCC5)s4)n3)n2)n1 [Compound 623, N4-[2-(6-methyl-2-pyridyl)pyrimidin-4-yl]-N2-[5-(1,2,3,6-tetrahydropyridin-4-yl)thiazol-2-yl]pyrimidine-2,4-diamine]",0.398 to 3.16 nM,25.1 to 158 nM
"Cc1cccc(-c2nccc(Nc3ccnc(Nc4cc(C(=O)OCCN5CCNCC5)ccn4)n3)n2)n1 [Compound 624, 2-piperazin-1-ylethyl 2-[[4-[[2-(6-methyl-2-pyridyl)pyrimidin-4-yl]amino]pyrimidin-2-yl]amino]pyridine-4-carboxylate]",3.98 to 31.6 nM,200 to 1260 nM
"Cc1cccc(-c2nccc(Nc3ccnc(Nc4ccc(C(=O)OC[C@@H]5CCCNC5)nc4)n3)n2)n1 [Compound 625, [(3R)-3-piperidyl]methyl 5-[[4-[[2-(6-methyl-2-pyridyl)pyrimidin-4-yl]amino]pyrimidin-2-yl]amino]pyridine-2-carboxylate]",0.0398 to 0.316 nM,25.1 to 158 nM
"Cc1cccc(-c2nccc(Nc3ccnc(Nc4nc(C5=CCNC5)cs4)n3)n2)n1 [Compound 626, N2-[4-(2,5-dihydro-1H-pyrrol-3-yl)thiazol-2-yl]-N4-[2-(6-methyl-2-pyridyl)pyrimidin-4-yl]pyrimidine-2,4-diamine]",0.0398 to 0.316 nM,25.1 to 158 nM
"Cc1cccc(-c2nccc(Nc3ccnc(Nc4csc(C(=O)OCCN5C[C@@H](C)N[C@@H](C)C5)c4)n3)n2)n1 [Compound 627, 2-[(3S,5R)-3,5-dimethylpiperazin-1-yl]ethyl 4-[[4-[[2-(6-methyl-2-pyridyl)pyrimidin-4-yl]amino]pyrimidin-2-yl]amino]thiophene-2-carboxylate]",0.0398 to 0.316 nM,25.1 to 158 nM
"Cc1cccc(-c2nccc(Nc3ccnc(Nc4ccc(C(=O)OC[C@H]5CCCCN5)nc4)n3)n2)n1 [Compound 628, [(2R)-2-piperidyl]methyl 5-[[4-[[2-(6-methyl-2-pyridyl)pyrimidin-4-yl]amino]pyrimidin-2-yl]amino]pyridine-2-carboxylate]",0.0398 to 0.316 nM,25.1 to 158 nM
"Cc1cccc(-c2nccc(Nc3ccnc(Nc4nc(CN5CC(C(=O)O)C5)cs4)n3)n2)n1 [Compound 629, 1-[[2-[[4-[[2-(6-methyl-2-pyridyl)pyrimidin-4-yl]amino]pyrimidin-2-yl]amino]thiazol-4-yl]methyl]azetidine-3-carboxylic acid]",0.0398 to 0.316 nM,1580 to 10000 nM
"Cc1cccc(-c2nccc(Nc3ccnc(Nc4ncc(C(=O)OC[C@@H]5CCNC5)s4)n3)n2)n1 [Compound 630, [(3R)-pyrrolidin-3-yl]methyl 2-[[4-[[2-(6-methyl-2-pyridyl)pyrimidin-4-yl]amino]pyrimidin-2-yl]amino]thiazole-5-carboxylate]",3.98 to 31.6 nM,200 to 1260 nM
"Cc1cccc(-c2nccc(Nc3ccnc(Nc4csc(C(=O)O[C@H]5C[C@@H](N)C5)c4)n3)n2)n1 [Compound 631, (3-aminocyclobutyl) 4-[[4-[[2-(6-methyl-2-pyridyl)pyrimidin-4-yl]amino]pyrimidin-2-yl]amino]thiophene-2-carboxylate]",0.0398 to 0.316 nM,25.1 to 158 nM
"Cc1cccc(-c2nccc(Nc3ccnc(Nc4cc(C(=O)O[C@H]5CCNC5)ccn4)n3)n2)n1 [Compound 632, [(3S)-pyrrolidin-3-yl] 2-[[4-[[2-(6-methyl-2-pyridyl)pyrimidin-4-yl]amino]pyrimidin-2-yl]amino]pyridine-4-carboxylate]",3.98 to 31.6 nM,25.1 to 158 nM
"Cc1cccc(-c2nccc(Nc3ccnc(Nc4cc(C(=O)OC5CCNCC5)ccn4)n3)n2)n1 [Compound 633, 4-piperidyl 2-[[4-[[2-(6-methyl-2-pyridyl)pyrimidin-4-yl]amino]pyrimidin-2-yl]amino]pyridine-4-carboxylate]",3.98 to 31.6 nM,200 to 1260 nM
"Cc1cccc(-c2nccc(Nc3ccnc(Nc4ccc(C(=O)OC5CCNCC5)cn4)n3)n2)n1 [Compound 634, 4-piperidyl 6-[[4-[[2-(6-methyl-2-pyridyl)pyrimidin-4-yl]amino]pyrimidin-2-yl]amino]pyridine-3-carboxylate]",3.98 to 31.6 nM,25.1 to 158 nM
"Cc1cccc(-c2nccc(Nc3ccnc(Nc4csc(C(=O)OC[C@@H]5CCC[C@@H](N)C5)c4)n3)n2)n1 [Compound 635, [(1R,3R)-3-aminocyclohexyl]methyl 4-[[4-[[2-(6-methyl-2-pyridyl)pyrimidin-4-yl]amino]pyrimidin-2-yl]amino]thiophene-2-carboxylate]",0.0398 to 0.316 nM,25.1 to 158 nM
"Cc1cccc(-c2nccc(Nc3ccnc(Nc4cc(C(=O)O)ccn4)n3)n2)n1 [Compound 636, 2-[[4-[[2-(6-methyl-2-pyridyl)pyrimidin-4-yl]amino]pyrimidin-2-yl]amino]pyridine-4-carboxylic acid]",3.98 to 31.6 nM,1580 to 10000 nM
